Reference: patent US11117900B2 (Vertex Pharmaceuticals Incorporated, priority 2012, dated 2021)

Test system: HCT116 colorectal cancer cells
Assay: Cisplatin sensitization assay (96 h MTS cell viability);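 also: compound concentration needed to lower the IC50 of Cisplatin alone by a set fold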
Format: cell-based
Details: Cisplatin sensitization value
Method: Compounds can be screened for their ability to sensitize HCT116 colorectal cancer cells to Cisplatin using a 96 h cell viability (MTS) assay. […] Compounds and Cisplatin are then both added simultaneously to the cell media in 2-fold serial dilutions from a top final concentration of 10 μM as a full matrix of concentrations in a final cell volume of 200 μl, and the cells are then incubated at 37° C. in 5% CO2. After 96 h, 40 μl of MTS reagent (Promega G358a) is added to each well and the cells are incubated for 1 h at 37° C. in 5% CO2.
Compounds with a Cisplatin sensitization value of <0.02 μM are marked with “+++.” Compounds with a Cisplatin sensitization value >0.02 μM but <0.2 μM are marked with “++.” Compounds with a Cisplatin sensitization value >0.2 μM but <5 μM are marked with “+.”

SMILES | Cisplatin Sensitization Assay
Nc1nn2cc(F)cnc2c1C(=O)Nc1cnccc1O[C@H]1CN2CCC1CC2 [I-O-5, (R)-2-amino-6-fluoro-N-(4-(quinuclidin-3-yloxy)pyridin-3-yl)pyrazolo[1,5-a]pyrimidine-3-carboxamide] | +++ (Compounds with a Cisplatin sensitization value of <0.02 μM are marked with “+++.”)
CN1CC(NC(=O)C2CCN(c3c(F)cncc3NC(=O)c3c(N)nn4cc(F)cnc34)CC2)C1 [I-G-23, 2-amino-6-fluoro-N-(5-fluoro-4-(4-((1-methylazetidin-3-yl)carbamoyl)piperidin-1-yl)pyridin-3-yl)pyrazolo[1,5-a]pyrimidine-3-carboxamide] | +++ (Compounds with a Cisplatin sensitization value of <0.02 μM are marked with “+++.”)
Nc1nn2cc(Cl)cnc2c1C(=O)Nc1cnccc1OCC(F)(F)F [I-O-59, 2-amino-6-chloro-N-(4-(2,2,2-trifluoroethoxy)pyridin-3-yl)pyrazolo[1,5-a]pyrimidine-3-carboxamide] | +++ (Compounds with a Cisplatin sensitization value of <0.02 μM are marked with “+++.”)
Nc1nn2cc(F)cnc2c1C(=O)Nc1cnccc1-c1ccc(C(=O)N2CCC(N3CCCC3)CC2)nc1 [I-C-53, 2-amino-6-fluoro-N-(6-(4-(pyrrolidin-1-yl)piperidine-1-carbonyl)-[3,4′-bipyridin]-3′-yl)pyrazolo[1,5-a]pyrimidine-3-carboxamide] | +++ (Compounds with a Cisplatin sensitization value of <0.02 μM are marked with “+++.”)
N#CCc1cnc2c(C(=O)Nc3cnccc3N3CCCCC3)c(N)nn2c1 [I-N-84, 2-amino-6-(cyanomethyl)-N-(4-(piperidin-1-yl)pyridin-3-yl)pyrazolo[1,5-a]pyrimidine-3-carboxamide] | +++ (Compounds with a Cisplatin sensitization value of <0.02 μM are marked with “+++.”)
N#CCc1cnc2c(C(=O)Nc3cnccc3OC3CCNCC3)c(N)nn2c1 [I-O-84, 2-amino-6-(cyanomethyl)-N-(4-(piperidin-4-yloxy)pyridin-3-yl)pyrazolo[1,5-a]pyrimidine-3-carboxamide] | ++ (Compounds with a Cisplatin sensitization value >0.02 μM but <0.2 μM are marked with “++.”)
Nc1nn2cc(F)cnc2c1C(=O)Nc1cnccc1-n1ccnc1C(F)(F)F [I-N-219, 2-amino-6-fluoro-N-(4-(2-(trifluoromethyl)-1H-imidazol-1-yl)pyridin-3-yl)pyrazolo[1,5-a]pyrimidine-3-carboxamide] | +++ (Compounds with a Cisplatin sensitization value of <0.02 μM are marked with “+++.”)
Nc1nn2cc(F)cnc2c1C(=O)Nc1cnccc1N1CCN2C(=O)CC[C@H]2C1 [I-N-217, (S)-2-amino-6-fluoro-N-(4-(6-oxohexahydropyrrolo[1,2-a]pyrazin-2(1H)-yl)pyridin-3-yl)pyrazolo[1,5-a]pyrimidine-3-carboxamide] | ++ (Compounds with a Cisplatin sensitization value >0.02 μM but <0.2 μM are marked with “++.”)
Cn1cncc1-c1ccncc1NC(=O)c1c(N)nn2cc(F)cnc12 [I-C-56, 2-amino-6-fluoro-N-(4-(1-methyl-1H-imidazol-5-yl)pyridin-3-yl)pyrazolo[1,5-a]pyrimidine-3-carboxamide] | +++ (Compounds with a Cisplatin sensitization value of <0.02 μM are marked with “+++.”)
CN(C)CC1(O)CCN(c2ccncc2NC(=O)c2c(N)nn3cc(Cl)cnc23)CC1 [I-N-36, 2-amino-6-chloro-N-(4-(4-((dimethylamino)methyl)-4-hydroxypiperidin-1-yl)pyridin-3-yl)pyrazolo[1,5-a]pyrimidine-3-carboxamide] | ++ (Compounds with a Cisplatin sensitization value >0.02 μM but <0.2 μM are marked with “++.”)
Cc1nc(C)n(-c2ccncc2NC(=O)c2c(N)nn3cc(F)cnc23)n1 [I-N-218, 2-amino-N-(4-(3,5-dimethyl-1H-1,2,4-triazol-1-yl)pyridin-3-yl)-6-fluoropyrazolo[1,5-a]pyrimidine-3-carboxamide] | + (Compounds with a Cisplatin sensitization value >0.2 μM but <5 μM are marked with “+.”)
N#CCc1cnc2c(C(=O)Nc3cnccc3N3CCOCC3)c(N)nn2c1 [I-N-81, 2-amino-6-(cyanomethyl)-N-(4-morpholinopyridin-3-yl)pyrazolo[1,5-a]pyrimidine-3-carboxamide] | +++ (Compounds with a Cisplatin sensitization value of <0.02 μM are marked with “+++.”)
Nc1nn2cc(Cl)cnc2c1C(=O)Nc1cnccc1OC1CC2(CNC2)C1 [I-O-72, N-(4-(2-azaspiro[3.3]heptan-6-yloxy)pyridin-3-yl)-2-amino-6-chloropyrazolo[1,5-a]pyrimidine-3-carboxamide] | + (Compounds with a Cisplatin sensitization value >0.2 μM but <5 μM are marked with “+.”)
Nc1nn2cc(F)cnc2c1C(=O)Nc1cnccc1N1CCN2C(=O)OCC2C1 (stereo not shown) [I-N-238, 2-amino-6-fluoro-N-(4-(3-oxotetrahydro-1H-oxazolo[3,4-a]pyrazin-7(3H)-yl)pyridin-3-yl)pyrazolo[1,5-a]pyrimidine-3-carboxamide] | ++ (Compounds with a Cisplatin sensitization value >0.02 μM but <0.2 μM are marked with “++.”)
COCCS(=O)(=O)C1CCN(c2ccncc2NC(=O)c2c(N)nn3cc(F)cnc23)CC1 [I-N-208, 2-amino-6-fluoro-N-(4-(4-((2-methoxyethyl)sulfonyl)piperidin-1-yl)pyridin-3-yl)pyrazolo[1,5-a]pyrimidine-3-carboxamide] | +++ (Compounds with a Cisplatin sensitization value of <0.02 μM are marked with “+++.”)
CN1CCC(S(=O)(=O)N2CCN(c3ccncc3NC(=O)c3c(N)nn4cc(F)cnc34)CC2)CC1 [I-N-188, 2-amino-6-fluoro-N-(4-(4-((1-methylpiperidin-4-yl)sulfonyl)piperazin-1-yl)pyridin-3-yl)pyrazolo[1,5-a]pyrimidine-3-carboxamide] | +++ (Compounds with a Cisplatin sensitization value of <0.02 μM are marked with “+++.”)
Nc1nn2cc(Cl)cnc2c1C(=O)Nc1cnccc1OC1CCNCC1 [I-O-80, 2-amino-6-chloro-N-(4-(piperidin-4-yloxy)pyridin-3-yl)pyrazolo[1,5-a]pyrimidine-3-carboxamide] | +++ (Compounds with a Cisplatin sensitization value of <0.02 μM are marked with “+++.”)
N#CC1CN(C(=O)C2CCN(c3c(F)cncc3NC(=O)c3c(N)nn4cc(F)cnc34)CC2)C1 [I-G-76, 2-amino-N-(4-(4-(3-cyanoazetidine-1-carbonyl)piperidin-1-yl)-5-fluoropyridin-3-yl)-6-fluoropyrazolo[1,5-a]pyrimidine-3-carboxamide] | +++ (Compounds with a Cisplatin sensitization value of <0.02 μM are marked with “+++.”)
CN1CCC[C@H]1C(=O)N1CCN(c2c(F)cncc2NC(=O)c2c(N)nn3cc(F)cnc23)CC1 [I-N-157, (S)-2-amino-6-fluoro-N-(5-fluoro-4-(4-(1-methylpyrrolidine-2-carbonyl)piperazin-1-yl)pyridin-3-yl)pyrazolo[1,5-a]pyrimidine-3-carboxamide] | ++ (Compounds with a Cisplatin sensitization value >0.02 μM but <0.2 μM are marked with “++.”)
Nc1nn2cc(F)cnc2c1C(=O)Nc1cncc(F)c1N1CCC(S(=O)(=O)N2CCOCC2)CC1 [I-N-155, 2-amino-6-fluoro-N-(5-fluoro-4-(4-(morpholinosulfonyl)piperidin-1-yl)pyridin-3-yl)pyrazolo[1,5-a]pyrimidine-3-carboxamide] | +++ (Compounds with a Cisplatin sensitization value of <0.02 μM are marked with “+++.”)
Nc1nn2cc(Cl)cnc2c1C(=O)Nc1cnccc1O[C@H]1C[C@]2(CCN2)C1 [I-O-78, N-(4-((4s,6r)-1-azaspiro[3.3]heptan-6-yloxy)pyridin-3-yl)-2-amino-6-chloropyrazolo[1,5-a]pyrimidine-3-carboxamide] | + (Compounds with a Cisplatin sensitization value >0.2 μM but <5 μM are marked with “+.”)
CN(C)CC1CCN(c2ccncc2NC(=O)c2c(N)nn3cc(F)cnc23)CC1 [I-N-267, 2-amino-N-(4-(4-((dimethylamino)methyl)piperidin-1-yl)pyridin-3-yl)-6-fluoropyrazolo[1,5-a]pyrimidine-3-carboxamide] | +++ (Compounds with a Cisplatin sensitization value of <0.02 μM are marked with “+++.”)
CNCCc1cnn(-c2ccncc2NC(=O)c2c(N)nn3cc(F)cnc23)c1 [I-N-8, 2-amino-6-fluoro-N-(4-(4-(2-(methylamino)ethyl)-1H-pyrazol-1-yl)pyridin-3-yl)pyrazolo[1,5-a]pyrimidine-3-carboxamide] | + (Compounds with a Cisplatin sensitization value >0.2 μM but <5 μM are marked with “+.”)
CN1CCOCC1C(=O)N1CCN(c2c(F)cncc2NC(=O)c2c(N)nn3cc(F)cnc23)CC1 (stereo not shown) [I-N-227, 2-amino-6-fluoro-N-(5-fluoro-4-(4-(4-methylmorpholine-3-carbonyl)piperazin-1-yl)pyridin-3-yl)pyrazolo[1,5-a]pyrimidine-3-carboxamide] | +++ (Compounds with a Cisplatin sensitization value of <0.02 μM are marked with “+++.”)
Cn1cncc1-c1c(F)cncc1NC(=O)c1c(N)nn2cc(F)cnc12 [I-C-79, 2-amino-6-fluoro-N-(5-fluoro-4-(1-methyl-1H-imidazol-5-yl)pyridin-3-yl)pyrazolo[1,5-a]pyrimidine-3-carboxamide] | +++ (Compounds with a Cisplatin sensitization value of <0.02 μM are marked with “+++.”)
